{"source": "patent US5250543A", "about": "“Derivatives of 1,4-dihydropyridine, their preparation procedure and therapeutic compositions containing them” (priority 1991, dated 1993)", "key": {"[1]": {"system": "rat's isolated aorta", "test": "Calcium blocking activity in vitro: KCl contraction of the rat's isolated aorta", "assay_type": "cell-based", "method": "The calcium blocking activity was determined in vitro by using the method of contracting the rat's isolated aorta with KCI (see Bernard Swynghedauw--Animal Experiments in Cardiology, Collection INSERM Medicine Sciences, Flammarion).\n(§1) For this purpose, the IC50 values were at first determined at the receptors (on the DHP membranous site with ^3 H-radiolabelled ligand isradipine and with these doses the percentage of inhibition in the contraction of the isolated aorta was determined."}, "[2]": {"target": "DHP membranous site", "test": "Receptor binding at DHP membranous site with 3H-radiolabelled ligand isradipine", "conditions": "same value used as dose in aorta test, read-out: IC50 at the receptors", "method": "as §1"}, "[3]": {"test": "Solubility in water (noted in preparation)", "assay_type": "physicochemical", "conditions": "isolated powder, in words"}, "[4]": {"system": "conscious Wistar rats suffering from genetic hypertension", "test": "Effects on mean arterial pressure and heartbeat frequency in conscious rats suffering from genetic hypertension", "assay_type": "in vivo, rat (Wistar)", "conditions": "oral, 16 mg/kg; for Heartbeat frequency / tachycardiac effect (in words): early effect (nicardipine after five minutes)", "method": "The effects were tested using conscious Wistar rats suffering from genetic hypertension (6 rats per compound). The compounds were administered orally as a 16 mg/kg (under 5.3 ml/kg) dose in suspension."}, "[5]": {"test": "Acute toxicity (intraperitoneal) in rats", "conditions": "rat, in vivo, ip, Sprague-Dawley rats, Example 1 given as 20 mg/ml aqueous suspension, nicardipine under the same conditions", "method": "The acute toxicity of the compound of example 1 was determined on rats injected intraperitoneally (Sprague-Dawley rats) and the product was administered as a 20 mg/ml aqueous suspension."}, "[6]": {"system": "histamine hyperpermeability in Sprague-Dawley rats", "test": "Effect on histamine hyperpermeability (Evan's Blue intradermal extravasation)", "assay_type": "in vivo, rat (Sprague-Dawley)", "method": "The effect of CRL 41695 administered intraperitoneally on hystamine hyperpermeability was tested on Sprague-Dawley rats.\nThe parameter tested was the effect on Evan's Blue intradermal extravasation induced by histamine injection.\n24 hours after shaving and epilation of the rat's flanks, CRL 41695 was injected intraperitoneally at dose levels of 10 mg/kg (dispersed in 0.9% NaCl +5% carboxymethylcellulose) and 10 minutes later 0.25 ml/100 g of Evan's Blue at 2% injected intravenously.\n0.1 ml of 0.9% NaCl was then injected intradermally in the left flank and 0.01 ml of histamine ([…]) in the right flank.\nThe rats were sacrificed after 40 minutes and the injection sites removed. The Evan's Blue was extracted from the skin with 65% formamide and the solvent was removed by filtration. The optical density was determined as 620 nm."}}, "note": "Structures can show the parent of a compound that is named as a salt."}
{"compound": "COC(=O)C1=C(C)NC(C)=C(C(=O)OC2CCCN(CCCC(=O)c3c(OC)cc(OC)cc3OC)C2)C1c1cccc([N+](=O)[O-])c1", "note": "(centres unmarked) [Example 2, 2,6-dimethyl-4-(-3-nitrophenyl)-5-methoxycarbonyl-1,4-dihydropyridine-3-carboxylic acid N-[3-(2,4,6,trimethoxybenzoyl)propyl]piperidine-3-yl ester]", "values": [{"measurement": "inhibition at 0.01 µM", "setting": "[1]; dose 10^-8 M (= receptor IC50)", "value": 60, "unit": "%"}, {"measurement": "IC50", "setting": "[2]", "value": 10, "unit": "nM"}, {"measurement": "Solubility in water", "setting": "[3]", "value": "soluble in water in the presence of acetic acid"}]}
{"compound": "COC(=O)C1=C(C)NC(C)=C(C(=O)OC2CCCN(CCCC(=O)c3c(OC)cc(OC)cc3OC)C2)C1c1cccc([N+](=O)[O-])c1", "note": "(centres unmarked) [Example 11, 2,6-dimethyl-4-(3-nitrophenyl)-5-methoxycarbonyl-1,4-dihydropyridine-3-carboxylic acid N-[3-(2,4,6-trimethoxybenzoyl)propyl]piperidine-3'-yl ester, glutamate]", "values": [{"measurement": "Solubility in water", "setting": "[3]", "value": "water-insoluble"}]}
{"compound": "COC(=O)C1=C(C)NC(C)=C(C(=O)O[C@H]2CCCN(CCCC(=O)c3c(OC)cc(OC)cc3OC)C2)[C@H]1c1cccc([N+](=O)[O-])c1", "note": "(single isomer, unassigned) [Example 8, hydrochloride]", "values": [{"measurement": "inhibition at 0.004 µM", "setting": "[1]; dose 4 × 10^-9 M (= receptor IC50)", "value": 40, "unit": "%"}, {"measurement": "IC50", "setting": "[2]", "value": 4, "unit": "nM"}, {"measurement": "Solubility in water", "setting": "[3]", "value": "water-insoluble"}]}
{"compound": "COC(=O)C1=C(C)NC(C)=C(C(=O)O[C@@H]2CCCN(CCCC(=O)c3c(OC)cc(OC)cc3OC)C2)[C@H]1c1cccc([N+](=O)[O-])c1", "note": "[Example 7, (-)(4S, 3'R) 2,6-dimethyl-4-(3-nitrophenyl)-5-methoxycarbonyl-1,4-dihydropyridine-3-carboxylic acid N-[3-(2,4,6-trimethoxybenzoyl)propyl]piperidine-3'-yl ester]", "values": [{"measurement": "inhibition at 0.002 µM", "setting": "[1]; dose 2 × 10^-9 M (= receptor IC50)", "value": 80, "unit": "%"}, {"measurement": "IC50", "setting": "[2]", "value": 2, "unit": "nM"}, {"measurement": "Solubility in water", "setting": "[3]", "value": "water-insoluble"}]}
{"compound": "COC(=O)C1=C(C)NC(C)=C(C(=O)OCC2CCCN2CCCC(=O)c2c(OC)cc(OC)cc2OC)C1c1cccc([N+](=O)[O-])c1", "note": "(centres unmarked) [Example 3, 2,6-dimethyl-4-(3-nitrophenyl-5-methoxycarbonyl-1,4-dihydropyridine-3-carboxylic acid N-[3-(2,4,6-trimethoxybenzoyl)propyl]pyrrolidylmethyl ester, hydrochloride]", "values": [{"measurement": "Solubility in water", "setting": "[3]", "value": "water-insoluble"}]}
{"compound": "COC(=O)C1=C(C)NC(C)=C(C(=O)OCCN(C)Cc2ccccc2)C1c1cccc([N+](=O)[O-])c1", "note": "(centres unmarked) [nicardipine, reference compound]", "values": [{"measurement": "Time of maximum secondary tachycardiac effect", "setting": "[4]", "value": 5, "unit": "h"}, {"measurement": "Heartbeat frequency, variation after 5 mins", "setting": "[4]", "value": "+32%"}, {"measurement": "Arterial pressure, variation after 3 hrs", "setting": "[4]", "value": -39, "unit": "%"}, {"measurement": "Heartbeat frequency, variation after 5 hrs", "setting": "[4]", "value": "+23%"}, {"measurement": "Arterial pressure, variation after 7 hrs", "setting": "[4]", "value": -27, "unit": "%"}, {"measurement": "Heartbeat frequency / tachycardiac effect (in words)", "setting": "[4]", "value": "clear tachycardiac effect after five minutes"}, {"measurement": "Secondary tachycardiac effect (in words)", "setting": "[4]", "value": "secondary tachycardiae effect was also observed"}, {"measurement": "LD50", "setting": "[5]", "value": "233 ± 65", "unit": "mg/kg"}]}
{"compound": "COC(=O)C1=C(C)NC(C)=C(C(=O)OC2CCCN(CCCC(=O)c3c(OC)cc(OC)cc3OC)C2)C1c1cccc([N+](=O)[O-])c1", "note": "(centres unmarked) [Example 12, 2,6-dimethyl-4-(3-nitrophenyl)-5-methoxycarbonyl-1,4-dihydropyridine-3-carboxylic acid N-[3-(2,4,6-trimethoxybenzoyl)propyl]piperidine-3'-yl ester, aspartate]", "values": [{"measurement": "Solubility in water", "setting": "[3]", "value": "water-insoluble"}]}
{"compound": "COC(=O)C1=C(C)NC(C)=C(C(=O)OC2CCCN(CCCC(=O)c3c(OC)cc(OC)cc3OC)C2)C1c1cccc([N+](=O)[O-])c1", "note": "(centres unmarked) [Example 10, 2,6-dimethyl-4-(3-nitrophenyl)-5-methoxycarbonyl-1,4-dihydropyridine-3-carboxylic acid N-[3-(2,4,6-trimethoxybenzoyl)propyl]piperidine-3'-yl, lactate]", "values": [{"measurement": "Solubility in water", "setting": "[3]", "value": "soluble in cold water but is precipitated on warming"}]}
{"compound": "COC(=O)C1=C(C)NC(C)=C(C(=O)O[C@H]2CCCN(CCCC(=O)c3c(OC)cc(OC)cc3OC)C2)[C@H]1c1cccc([N+](=O)[O-])c1", "note": "[Example 4, (+)(4S, 3'S) 2,6-dimethyl-4-(3-nitrophenyl)-5-methoxycarbonyl-1,4-dihydropyridine-3-carboxylic acid N-[3-(2,4,6-trimethoxybenzoyl)propyl]piperidine-3'-yl ester]", "values": [{"measurement": "inhibition at 0.003 µM", "setting": "[1]; dose 3 × 10^-9 M (= receptor IC50)", "value": 70, "unit": "%"}, {"measurement": "IC50", "setting": "[2]", "value": 3, "unit": "nM"}, {"measurement": "Solubility in water", "setting": "[3]", "value": "water-insoluble"}]}
{"compound": "COC(=O)C1=C(C)NC(C)=C(C(=O)OC2CCCN(CCCC(=O)c3c(OC)cc(OC)cc3OC)C2)C1c1cccc([N+](=O)[O-])c1", "note": "(centres unmarked) [Example 1, 2,6-dimethyl-4-(3-nitro-phenyl)-5-methoxycarbonyl-1,4-dihydropyridine-3-carboxylic acid N-[3-(2,4,6-trimethoxybenzoyl)propyl]piperidine-3'-yl ester, hydrochloride]", "values": [{"measurement": "Duration of significant hypotension", "setting": "[4]", "value": "at least 7 hours"}, {"measurement": "Heartbeat frequency, variation after 5 mins", "setting": "[4]", "value": "+13%"}, {"measurement": "Arterial pressure, variation after 3 hrs", "setting": "[4]", "value": -50, "unit": "%"}, {"measurement": "Heartbeat frequency, variation after 5 hrs", "setting": "[4]", "value": 0, "unit": "%"}, {"measurement": "Arterial pressure, variation after 7 hrs", "setting": "[4]", "value": -42, "unit": "%"}, {"measurement": "Hypotension (in words)", "setting": "[4]; during at least 7 hours", "value": "significantly raised"}, {"measurement": "Heartbeat frequency / tachycardiac effect (in words)", "setting": "[4]", "value": "only slightly increased"}, {"measurement": "Secondary tachycardiac effect (in words)", "setting": "[4]", "value": "not found"}, {"measurement": "LD50", "setting": "[5]", "value": "249 ± 50", "unit": "mg/kg"}, {"measurement": "Antihyperpermeable effect (intradermal concentration of Evan's Blue induced by histamine, in words)", "setting": "[6]; 10 mg/kg intraperitoneal", "value": "decrease greatly the intradermal concentration of Evan's Blue"}, {"measurement": "Decrease in the intradermal concentration of Evan's Blue", "setting": "[6]; ip, 10 mg/kg", "value": 50, "unit": "%"}, {"measurement": "Solubility in water", "setting": "[3]; hydrochloride", "value": "water-insoluble"}]}
{"compound": "COC(=O)C1=C(C)NC(C)=C(C(=O)O[C@@H]2CCCN(CCCC(=O)c3c(OC)cc(OC)cc3OC)C2)[C@@H]1c1cccc([N+](=O)[O-])c1", "note": "[Example 5, (-)(4R, 3'R) 2,6-dimethyl-4-(3-nitrophenyl)-5-methoxycarbonyl-1,4-dihydropyridine-3-carboxylic acid N-[3-(2,4,6-trimethoxybenzoyl)propyl]piperidine-3-yl ester]", "values": [{"measurement": "Solubility in water", "setting": "[3]", "value": "water-insoluble"}]}
{"compound": "COC(=O)C1=C(C)NC(C)=C(C(=O)O[C@H]2CCCN(CCCC(=O)c3c(OC)cc(OC)cc3OC)C2)[C@@H]1c1cccc([N+](=O)[O-])c1", "note": "[Example 6, (+)(4R, 3'S) 2,6-dimethyl-4-(3-nitrophenyl)-5-methoxycarbonyl-1,4-dihydropyridine-3-carboxylic acid N-[3-(2,4,6-trimethoxybenzoyl)propyl]piperidine-3'-yl ester]", "values": [{"measurement": "Solubility in water", "setting": "[3]", "value": "water-insoluble"}]}
{"compound": "COC(=O)C1=C(C)NC(C)=C(C(=O)O[C@@H]2CCCN(CCCC(=O)c3c(OC)cc(OC)cc3OC)C2)[C@H]1c1cccc([N+](=O)[O-])c1", "note": "(single isomer, unassigned) [Example 9, hydrochloride]", "values": [{"measurement": "inhibition at 0.0006 µM", "setting": "[1]; dose 6 × 10^-10 M (= receptor IC50)", "value": 60, "unit": "%"}, {"measurement": "IC50", "setting": "[2]", "value": 0.6, "unit": "nM"}, {"measurement": "Solubility in water", "setting": "[3]", "value": "water-insoluble"}]}
